Source: patent US20260276656A1, “GUT MICROBIOTA-RELATED METHODS FOR TREATING DEMENTIA AND AGE-DEPENDENT COGNITIVE DECLINE” (Albert-Ludwigs-Universitat Freiburg, priority 2019, published 2026)
Entries after “also recorded” stand apart in the source; their conditions may differ.

Legend:
[1] = system: prelimbic or infralimbic cortex of the mPFC; experiment: In vivo recordings from prelimbic or infralimbic cortex, spike-spike synchronization; parameters: species or system mouse; conditions: systemic application (intraperitoneally); n=9 mice; FIG. 8
Procedure: C57BL/6J mice aged 10-11 weeks were anesthetized with isofluorane (induction: 3%, maintenance approximately 1.5%). Buprenorphin (0.05-0.1 mg/kg body weight) and Carprofen (4-5 mg/kg body weight) were injected for analgesia. During implantation, the body temperature was maintained with a heating pad. The skin was incised from the cerebellum to the nose and the bone cleaned with 3% H2O2. Ground and reference screws (1 mm diameter) were inserted anterior to the lambdoid suture. A third stabilizing screw was inserted on the left parietal bone. A microdrive loaded with 8 tetrodes made from tungsten wire (California Fine Wire Company) was inserted in the right prefrontal cortex at the coordinates AP+1.9, ML 0.4, DV−1.2 (from brain surface). The craniotomy was protected with vaseline and the microdrive fixed to the skull using dental cement. After the surgery, the mice were injected with buprenorphin and carprofen subcutaneously for 48 h hours and housed individually.
Local field potential were recorded with a wireless amplifier system (W4, Multichannel Systems) 2-21 days after surgery at a sampling rate of 2 kHz or with a wired recording system (RHD2000, Intan Technologies, sampling rate 10 kHz) on freely moving mice. Single-unit activity was recorded at 20-30 kHz using a 32-channel amplifier system (RHD2000, Intan Technologies). […]

[2] = system: medial prefrontal cortex neurons; experiment: In vivo single unit recordings from medial prefrontal cortex during natural sleep, spike rate and population coupling; parameters: species or system mouse; conditions: 5 mg/kg body weight i.p.; versus PBS; normalized to baseline; FIG. 9B
Procedure: C57BL/6J mice aged 10-11 weeks were anesthetized with isofluorane (induction: 3%, maintenance approximately 1.5%). Buprenorphin (0.05-0.1 mg/kg body weight) and Carprofen (4-5 mg/kg body weight) were injected for analgesia. During implantation, the body temperature was maintained with a heating pad. The skin was incised from the cerebellum to the nose and the bone cleaned with 3% H2O2. Ground and reference screws (1 mm diameter) were inserted anterior to the lambdoid suture. A third stabilizing screw was inserted on the left parietal bone. […]
After habituation to the recording room for several days, single-unit recordings were performed at a sampling frequency of 30 kHz using a 32-channel amplifier (Intan Technologies). […] First, a baseline was recorded during sleep identified as epochs when mice were completely immobile in their home cage and slow wave activity could be seen in the PFC local field potential. […]
Recording sections containing artefacts were manually identified and removed. […] Firing rates were estimated from the total number of spikes during the analyzed behavioral episodes divided by the duration. To quantify population synchrony, we utilized a metric that compares the rate change of a given unit to the normalized population rate at each time point. […]

[3] = system: Layer 2/3 pyramidal cells of the infralimbic or prelimbic mPFC; experiment: Whole-cell patch-clamp recordings of spontaneous EPSCs and IPSCs in acute prefrontal brain slices; assay type: cell-based, mouse; conditions: pre-incubation with 10 μM
Procedure: Mice were injected intraperitoneally with ketamine/xylazine (100/13 mg/kg body weight) and intracardially perfused with ice-cold solution containing (in mM) NaCl 87, NaHCO325, KCl 2.5, NaH2PO4 1.25, glucose 10, sucrose 75, CaCl2 0.5 and MgCl2 7 (aerated with 95% O2/5% CO2). 300 μm thick frontal sections of the PFC were prepared with a vibratome and stored in artificial cerebrospinal fluid (ACSF) containing in mM: NaCl 125, NaHCO3 25, KCl 2.5, NaH2PO4 1.25, Glucose 25, CaCl2 2 and MgCl2 1 (equillibrated with 95% O2/5% CO2) first at 34° C. for 30 min, then at room temperature. Patch-clamp recordings were targeted to pyramidal neurons identified by their characteristic soma shape using pipettes pulled from borosilicate glass tubing and filled with a Cs-based pipette solution containing (in mM): CsCl 20, MgCl2 2, Na2ATP 2, QX-314 1, Hepes 10, TEACl 8, Cs-Gluconate 110. Recordings were performed at 30 to 34° C. using an Axopatch Multiclamp amplifier in voltage clamp mode. To isolate spontaneous excitatory postsynaptic currents (EPSCs), the resting membrane potential was held at −70 mV (the reversal potential of inhibitory postsynaptic currents (IPSCs). To record spontaneous IPSCs, the cell was held at 0 mV (the reversal potential of EPSCs). Both IPSCs and EPSCs were recorded from the same neurons in slices pre-incubated in 10 μM 6-valerobetaine or in control slices kept in ACSF. Spontaneous events were identified visually from lowpass-filtered data (<1 kHz). Amplitudes were measured from average events.

## C[N+](C)(C)CCCCC(=O)[O-] [NNN-trimethyl-5-aminovalerate, 5-(trimethylammonio) pentanoate]
[1]
  spike-spike-synchronization: enhanced
[2]
  average spike frequency (spike firing rate): No effect; also recorded: no change
  population coupling: significant increase
[3]
  amplitude of spontaneous EPSCs: unaltered; also recorded: no significant effect
  amplitude of spontaneous IPSCs: not the amplitude; also recorded: no significant effect
  frequency of spontaneous EPSCs: unaltered
  frequency of spontaneous IPSCs: increased
